Data: patent publication US20040175415A1, “Formulations and methods of delivery of intact tocopheryl succinate to humans” (priority 2003, published 2004)
Read-outs that look alike come from different tables or passages of the source.

Columns and labels:
[1] = room temperature raised to 40° C., man; cited from earlier work
[2] = safety of TS treatment in the human subjects; type: in vivo; settings: human subjects of this study
Description: The hydrolyzed products of TS are tocopherol (vitamin E) and succinic acid, an endogenous metabolite produced during the oxidation of carbohydrates, amino acids and fat. The upper safety limit for vitamin E is set at 1000 mg or 1 gm by the most recent issue of DRI (Dietary Reference Intake) for vitamin C, vitamin E selenium and carotenoids. The DRI report was published in 2000 and one of the joint inventors of the present invention served on the committee from which the report was sponsored by the Institute of Medicine, US National Academy of Sciences (Chan et al. 2000). The upper dose limit claimed in the invention herein, is below or around the upper safety limit set at 1 gm by the Institute of Medicine for oral ingestion.

[3] = system: colon cancer cell xenografts; settings: ip, 5 injections of 10 mg/day for 10 days; p < 0.01; cited from earlier work
murine melanoma = settings: ip, 15 injections at 3 mg/mouse, cited from earlier work
[4] = system: chemical-induced forestomach cancer; settings: cited from earlier work
colon cancer xenografts = settings: ip, 4 injections at 5 mg once every 3 days; cited from earlier work
[5] = system: human breast cancer cells; settings: cited from earlier work
[6] = the Merck index; cited from earlier work
[7] = system: esterase in the digestive juice; settings: human (Howritt et al. 1984, Chessman et al. 1995); cited from earlier work
[8] = system: human prostate cancer cells; settings: cited from earlier work
[9] = system: several lines of cancer cells in culture; settings: prior to the induction of apoptosis; cited from earlier work
[10] = DRI 2000, oral ingestion; cited from earlier work
[11] = intragastric 16 times at 1.25 g/kg
[12] = intragastric 16 times at 2.5 g/kg

O=C(O)c1ccccc1O [salicylate]
increase in dermal crossing [1]: 3 fold

tocopheryl succinate [TS]
safety of treatment procedure [2]: no concern regarding the safety | tumor volume [3]: tumor volume reduced | proliferation (murine melanoma): Treatment resulted in reduction of | tumor volume (murine melanoma; p < 0.01): Treatment resulted in reduction of | reduction in tumor incident [4, 11]: 18% | reduction in tumor volume [4, 11]: 63% | reduction in tumor incident [4, 12]: 23% | reduction in tumor volume [4, 12]: 81% | less tumor incident ([4]; ip, 8 injections at 20 mg/kg): reduction in tumor volume & 50% | reduction in tumor volume ([4]; ip, 8 injections at 20 mg/kg): ip treatments resulted in 84% | reduction in tumor volume (colon cancer xenografts): 75% reduction in tumor volume | angiogensis ([5]; ip injection): ip injection also reduce | expression of VEGF (vascular endothelial growth factor) ([5]; ip injection): angiogensis via the suppressing | reduction in tumor weight ([5]; ip, 7 injections at 3 mg/day): ip injection resulted in 63% | effect on tumor with sc injections ([5]; sc, at 150 mg/kg per day): no effect with sc injections. | solubility in vegetable oils [6]: not readily soluble | fate after oral ingestion [7]: convert to tocopherol | expression of PSA (prostate specific antigen) [8]: strongly suppresses | expression of the androgen receptors [8]: inhibits | cellular lysosomal disruption [9]: major disruption

Cc1c(C)c2c(c(C)c1O)CC[C@@](C)(CCC[C@H](C)CCC[C@H](C)CCCC(C)C)O2 [vitamin E, RRR-alpha-tocopherol]
upper safety limit [10]: 1000 mg
